The record followed here is patent US20250090562A1, “METHODS, COMPOSITIONS AND USES RELATED TO THE TREATMENT AND PREVENTION OF LEIGH’S SYNDROME” (Stealth BioTherapeutics Inc., priority 2023, published 2025).

Holding throughout (format): cell-based, human
For test [1], the system named is Healthy (GM08402) fibroblasts. The experiment in a line: RSL3 cytoprotection assay, healthy fibroblasts. The conditions noted are these: 1 μM RSL3, 10-1000 nM compound, 4 h. As for the experimental part:
(§1) Patient fibroblasts were acquired from Coriell Institute for Medical Research (Camden, NJ, USA). GM03672 is an untransformed fibroblast cell line from a Leigh syndrome patient carrying an unknown mutation. GM08402 is an untransformed fibroblast from an apparently healthy individual. Cells were cultured at 37° C. at 5% CO2 in Eagle's Minimum Essential Medium (MEM, Corning), which was supplemented with Earle's salts and non-essential amino acids, 15% qualified fetal bovine serum, and 1% penicillin/streptomycin ([…]) to yield “Complete MEM.”
(§2) To initiate the RSL3 cytoprotection experiment, Healthy (GM08402) and Leigh syndrome (GM03672) fibroblasts were resuspended in Complete MEM. Cells were seeded at 10,000 cells per well in a clear, tissue cultured-treated, 96-well plate and incubated at 37° C. overnight. Following the incubation, supernatant was manually aspirated, taking care not to disrupt cells. […]. Luminescence units were quantified by GEN5 software on a BioTek SYNERGY neo2 plate reader (LUM filter).
(§3) RSL3 is an inhibitor of the enzyme glutathione peroxidase 4 (GPX4), which decreases lipid peroxides. RSL3 inhibition of GPX4 induces ferroptosis through iron-dependent accumulation of lipid ROS. In this assay, Healthy or Leigh fibroblasts were treated for 4 hours with RSL3 to induce ferroptosis or left untreated. Endogenous ATP levels were measured as an indicator of cellular viability using a commercially available kit (CellTiter-Glo® 2.0 Cell Viability Assay (Promega)).
(§4) […]. […] Briefly, ferroptosis was induced with 1 μM RSL3 in healthy fibroblast cells and 375 nM RSL3 in fibroblasts from a patient with Leigh syndrome.
(§5) A preliminary experiment was performed to determine the effect of RSL3 injury on the fibroblasts of a healthy individual (cell line: GM08402) and the fibroblasts of a patient diagnosed with Leigh syndrome (cell line: GM03672).

The subject of test [2] is Leigh syndrome (GM03672) fibroblasts. Kind of test: RSL3 cytoprotection assay, Leigh fibroblasts. The conditions noted are these: 375 nM RSL3, 10-1000 nM compound, 4 h. As for the experimental part:
as §1, §2, §3, §4, §5

The subject of the next test is 15-lipoxygenase (15-LO). Kind of test: 15(S)-HETE ELISA following RSL3 treatment, healthy fibroblasts. Particulars: 700 nM RSL3, 1 μM compound, 24 h. The procedure: Samples for the 15(S)-HETE ELISA were generated by the RSL3 cytoprotection assay described above. Healthy or Leigh fibroblasts were resuspended in assay medium, seeded at 200,000 cells per well in a clear, tissue culture-treated, 24-well plate. Cells were incubated at 37° C. for 24 hours. Supernatant was aspirated from each well following the incubation.
Fibroblasts from both a healthy individual and a patient diagnosed with Leigh syndrome were examined (but not all compounds were examined in each cell type). Activation of ferroptosis has been implicated as a driver of epilepsy, which is commonly associated with Leigh syndrome. […] Kahn-Kirby et al. PLOS One. […] As a key regulator of ferroptosis, 15-LO serves as a rational therapeutic target in Leigh syndrome.
(ELISA stands for enzyme-linked immunosorbent assay.)

Test [3] has as its system Healthy (GM08402) fibroblasts. Kind of test: Erastin cytoprotection assay, healthy fibroblasts. Particulars: 2 μM erastin, 250 μM FAC, 50 μM AA, 10-1000 nM compound, 24 h. As for the experimental part: (§6) Briefly, Healthy (GM08402) or Leigh (GM03672) fibroblasts were resuspended in assay medium, seeded at 10,000 cells per well in a clear, tissue cultured-treated, 96-well plate, and incubated at 37° C. overnight. Following the incubation, supernatant was manually aspirated from wells, taking care not to disrupt cells. Fibroblasts were co-treated in a final volume of 100 μL with 2 μM erastin (Millipore Corp., Cat #), 250 μM ferric ammonium citrate (FAC), 50 μM ascorbic acid (AA), and a titration of one of each of Compounds 1 to 4 or Vatiquinone ranging from 10 to 1000 nM. Following another 24-hour incubation at 37° C., cell viability was measured using the CellTiter-Glo Luminescent Cell Viability Kit (ProMega) per Manufacturer's instructions. Luminescence units were quantified by GEN5 software on a BioTek SYNERGY neo2 plate reader (LUM filter).
(§7) Briefly, erastin, like RSL3, is known to induce ferroptosis. […] Erastin was incubated with cell fibroblasts for 24 hours to induce ferroptosis. Cells were co-treated with each of Compounds 1 to 4, or Vatiquinone as the test articles. Test articles were administered at a range of concentrations to derive a curve. Cell viability was determined using a commercially available kit that measures ATP production. […] An increase in cell viability as determined by the assay is considered to be protective against ferroptosis.

Test [4] deals with Leigh (GM03672) fibroblasts. Kind of test: Erastin cytoprotection assay, Leigh fibroblasts. Particulars: 2 μM erastin, 250 μM FAC, 50 μM AA, 10-1000 nM compound, 24 h. As for the experimental part:
as §6, §7

Turning to `CC1=C(C)C(=O)C(CC[C@@](C)(O)COCCC[Si](C)(C)C)=C(C)C1=O` [Compound 3], the “relative anti-ferroptosis properties (comparison between test articles)” value (“relative anti-ferroptosis properties” for short) in test [1] is “superior to Compounds 1, 4 and Vatiquinone”; in test [2], “superior to Compounds 1, 4 and Vatiquinone”. Moreover, the “inhibition of 15-lipoxygenase (15(S)-HETE in supernatant)” value (shortened to “inhibition of 15-lipoxygenase”) in the test on 15-lipoxygenase (15-LO) is listed as “inhibited 15-lipoxygenase”. Moreover, in the test with 15-lipoxygenase (15-LO), the “relative 15-LO inhibition (comparison between test articles)” value (shortened to “relative 15-LO inhibition”) was “superior to Compounds 2, 4 and Vatiquinone”. Further, the “relative protective effect against erastin induced ferroptosis (cell viability, ATP)” value (“relative protective effect” for short) in test [3] and in test [4] was “superior in their protective effect as compared with Vatiquinone or Compounds 1 or 4” in each case.
As to `CC1=C(C)C(=O)C(CC[C@@](C)(O)CC/C=C(\C)CCC=C(F)F)=C(C)C1=O` [Compound 2], the “relative anti-ferroptosis properties” value in test [1] is “superior to Compounds 1, 4 and Vatiquinone”; in test [2] it was “superior to Compounds 1, 4 and Vatiquinone”. The “inhibition of 15-lipoxygenase” value with 15-lipoxygenase (15-LO) is listed as “inhibited 15-lipoxygenase”. Besides, the “relative 15-LO inhibition” value in the test on 15-lipoxygenase (15-LO) is “roughly equivalent protective effect”. Moreover, the “relative protective effect” value in test [3] and in test [4] was “superior in their protective effect as compared with Vatiquinone or Compounds 1 or 4” each time.
`CC1=C(C)C(=O)C(CC[C@](C)(O)CCCCCCCCC(F)(F)F)=C(C)C1=O` [Compound 4]: the “relative anti-ferroptosis properties” value in test [1] and in test [2] was “roughly equivalent in their anti-ferroptosis properties” in each case. In addition, the “inhibition of 15-lipoxygenase” value in the test with 15-lipoxygenase (15-LO) is recorded as “inhibited 15-lipoxygenase”. In addition, the “relative 15-LO inhibition” value in the test on 15-lipoxygenase (15-LO) is “roughly equivalent protective effect”. For the same molecule, the “relative protective effect” value in test [3] and in test [4] was “about equally protective” each time.
